The values below are quoted from earlier work in patent publication US6262080A, “3-(thio-substitutedamido)-lactams useful as inhibitors of matrix metalloproteinase” (Avantis Pharmaceuticals Inc., priority 1999, dated 2001).

The data set concerns B16-BL6 murine melanoma. The note with it: intraperitoneal administration; lung colonies produced by intravenous injection of B16-BL6 murine melanoma in C57BL/6N mice.

For `CNC(=O)[C@H](Cc1ccccc1)NC(=O)[C@H](CC(C)C)[C@H](CSc1cccs1)C(=O)NO` [batimastat], the “growth and metastatic spread and number of lung colonies” value was “significant inhibition”.
